Laboratory results reported in patent publication EP0339193A1, “Peptide ligands for bombesin receptors” (FARMITALIA CARLO ERBA S.r.l., priority 1988, dated 1989).
Where a name gives a salt, the structure may show the parent alone. Numbered stars: 1 amine (or outer) side, 2 acyl side, 3 side chain; on linkers, the order of the positions; unused ones are H or OH. Square brackets hold non-standard residues; d marks the D form. Ends that are not written are not given here. Peptide text beside a SMILES is read from it. * marks the point of attachment. His(Dnp) = O=C([C@H](Cc1cn(-c2ccc([N+](=O)[O-])cc2[N+](=O)[O-])cn1)N[*:1])[*:2]; Dnp = O=[N+]([O-])c1ccc(*)c([N+](=O)[O-])c1; Boc = CC(C)(C)OC(=O)*; NHPentyl = CCCCCN*

tested on: rat grooming behaviour stimulated by bombesin; experiment: Grooming behaviour in the rat after i.c.v. administration (inhibition of bombesin-stimulated grooming); assay type: in vivo; details: BBS 0.01 µg/rat + XXI 10 µg/rat in combination
Text: The antagonistic activity has been evaluated both in vitro and in vivo; in vitro, as inhibition of the bombesin-induced DNA synthesis in Swiss 3T3 cells (A.N. Corps et al. (1985) Biochem. J., 231, 781-785) (Table 2) and rat urinary bladder contraction (M. Broccardo et al. (1975) Br. J.Pharmac., 55, 221-227) (Table 3); in vivo, by i.c.v. administration, as inhibition of the rat grooming behaviour stimulated by bombesin (A. Cowan et al. (1985) Life Sciences, 37, 135-145) (Table 4).

For `CSCC[C@H](NC(=O)[C@@H](CC(C)C)NC(=O)[C@H](Cc1c[nH]cn1)NC(=O)CNC(=O)[C@@H](NC(=O)[C@H](C)NC(=O)[C@H](Cc1c[nH]c2ccccc12)NC(=O)[C@H](CCC(N)=O)NC(=O)[C@@H](N)[C@@H](C)O)C(C)C)C(N)=O` [XXI, H-Thr-Gln-Trp-Ala-Val-Gly-His-leu-Met-NH₂.CF₃COOH], which Grooming score is on record?
Its Grooming score is 35.

same assay, conditions: BBS 0.01 µg/rat alone

With “Glp-Gln-Arg-Leu-Gly-Asn-Gln-Trp-Ala-Val-Gly-His-Leu-Met-NH₂ [BBS, reference compound]” as the compound, how does the Grooming score read?
Its Grooming score is 55.

same assay, conditions: peptide XXI 10 µg/rat alone

For `CSCC[C@H](NC(=O)[C@@H](CC(C)C)NC(=O)[C@H](Cc1c[nH]cn1)NC(=O)CNC(=O)[C@@H](NC(=O)[C@H](C)NC(=O)[C@H](Cc1c[nH]c2ccccc12)NC(=O)[C@H](CCC(N)=O)NC(=O)[C@@H](N)[C@@H](C)O)C(C)C)C(N)=O` [XXI, H-Thr-Gln-Trp-Ala-Val-Gly-His-leu-Met-NH₂.CF₃COOH], which Grooming score is on record?
Its Grooming score is 15.

biological target: T1, bombesin receptors (Mus musculus, UniProt P21729); experiment: Binding affinity for the bombesin receptors on Swiss 3T3 fibroblasts; details: binding affinity on mouse Swiss 3T3 fibroblasts
T1 construct: has been determined on Swiss 3T3 fibroblasts; endogenous in cells; host or cells: mouse Swiss 3T3 fibroblasts
Text: The binding affinity of the compounds of the present invention for the bombesin receptors has been determined on Swiss 3T3 fibroblasts (I. Zachary and E. Rozengurt (1985) Proc. Natl. Acad. Sci. USA, 82, 7616-7620) (Table 1).

T1 sequence (P21729 whole entry): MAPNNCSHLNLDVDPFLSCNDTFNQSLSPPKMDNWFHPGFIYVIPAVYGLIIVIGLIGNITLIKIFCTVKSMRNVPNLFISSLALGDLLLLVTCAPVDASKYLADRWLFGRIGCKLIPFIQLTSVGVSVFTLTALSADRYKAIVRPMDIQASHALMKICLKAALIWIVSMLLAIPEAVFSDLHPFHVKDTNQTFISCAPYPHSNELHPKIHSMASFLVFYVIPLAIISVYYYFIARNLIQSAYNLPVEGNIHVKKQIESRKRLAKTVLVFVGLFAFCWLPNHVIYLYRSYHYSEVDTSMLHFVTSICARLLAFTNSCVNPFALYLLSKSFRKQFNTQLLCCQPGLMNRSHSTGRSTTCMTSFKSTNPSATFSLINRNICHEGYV

For “H-Thr-Gln-Trp-Ala-Val-Gly-His(Dnp)-Leu-Met-NH₂ . HCl (TQWAVGH; His(Dnp)-Leu-Met-NH2 extension; HCl salt; printed: Thr-Gln-Trp-Ala-Val-Gly-His) [XXII]”, which ID₅₀ is on record?
Its ID₅₀ is 5,800 ± 750 nM.

“Boc-Thr-Gln-Trp-Ala-Val-Gly-His(Dnp)-Leu-NH₂ (Boc-TQWAVG[His(Dnp)]L-NH2; SMILES CC(C)C[C@H](NC(=O)[C@H](Cc1cn(-c2ccc([N+](=O)[O-])cc2[N+](=O)[O-])cn1)NC(=O)CNC(=O)[C@@H](NC(=O)[C@H](C)NC(=O)[C@H](Cc1c[nH]c2ccccc12)NC(=O)[C@H](CCC(N)=O)NC(=O)[C@@H](NC(=O)OC(C)(C)C)[C@@H](C)O)C(C)C)C(N)=O) [XXXII]” was tested. Which ID₅₀ did it give?
The ID₅₀ was 770 ± 13 nM.

Which ID₅₀ does the source give for “p-GRP: porcine gastrin releasing peptide (APVSVGGGTVLAKMYPRGNHWAVGHLM; ends and bridges not checked; UniProt P63153 24-50, looked up) [reference compound]” here?
Its ID₅₀ is 17.6 ± 4.0 nM.

For “Glp-Gln-Arg-Leu-Gly-Asn-Gln-Trp-Ala-Val-Gly-His-Leu-Met-NH₂ [BBS, reference compound]”, which ID₅₀ is on record?
The ID₅₀ was 12.6 ± 3.8 nM.

“H-Thr-Gln-Trp-Ala-Val-Gly-His(Dnp)-Leu-NH(CH₂)₄ CH₃.CF₃COOH (H-TQWAVG[His(Dnp)]L-{NH(CH2)4CH3}; also: TFA salt) [XXVII]” was tested. Which ID₅₀ did it give?
The ID₅₀ was 335 ± 101 nM.

With “H-Thr-Gln-Trp-Ala-Val-Gly-His(Dnp)-leu-Met-NH₂ . HCl (H-TQWAVGH(Dnp); not fully specified (C-terminus); also: HCl salt) [XX]” as the compound, how does the ID₅₀ read?
The ID₅₀ was 63,000 nM.

same assay, conditions: binding affinity on mouse Swiss 3T3 fibroblasts; read-out: ID₅₀

Which IC50 does the source give for “RTQWAVGALM-NH2 [XXVI, H-Arg-Thr-Gln-Trp-Ala-Val-Gly-Ala-Leu-Met-NH₂. 2CF₃COOH]” here?
The IC50 was 200 ± 60 nM.

For `CSCC[C@H](NC(=O)[C@@H](CC(C)C)NC(=O)[C@H](Cc1c[nH]cn1)NC(=O)CNC(=O)[C@@H](NC(=O)[C@H](C)NC(=O)[C@H](Cc1c[nH]c2ccccc12)NC(=O)[C@H](CCC(N)=O)NC(=O)[C@@H](N)[C@@H](C)O)C(C)C)C(N)=O` [XXI, H-Thr-Gln-Trp-Ala-Val-Gly-His-leu-Met-NH₂.CF₃COOH], which IC50 is on record?
Its IC50 is 10000 nM.

How did the IC50 turn out when `CSCC[C@H](NC(=O)[C@H](CC(C)C)NC(=O)[C@@H](Cc1ccccc1)NC(=O)CNC(=O)[C@@H](NC(=O)[C@H](C)NC(=O)[C@H](Cc1c[nH]c2ccccc12)NC(=O)[C@H](CCC(N)=O)NC(=O)[C@@H](NC(=O)OC(C)(C)C)[C@@H](C)O)C(C)C)C(N)=O` [XVI, Boc-Thr-Gln-Trp-Ala-Val-Gly-phe-Leu-Met-NH₂] (Boc-TQWAVG[dF]LM-NH2) was run?
Its IC50 is 19500 nM.

Which IC50 does the source give for “TQWAVGLM-NH2 [XIX, HCl. H-Thr-Gln-Trp-Ala-Val-Gly-Leu-Met-NH₂]” here?
The IC50 was 3400 nM.

Which IC50 does the source give for “TQWAVGFLM-NH2 [XXIII, H-Thr-Gln-Trp-Ala-Val-Gly-Phe-Leu-Met-NH₂.CF₃COOH]” here?
The IC50 was 4700 nM.

`CSCC[C@H](NC(=O)[C@H](CC(C)C)NC(=O)[C@@H](Cc1ccccc1)NC(=O)CNC(=O)[C@@H](NC(=O)[C@H](C)NC(=O)[C@H](Cc1c[nH]c2ccccc12)NC(=O)[C@H](CCC(N)=O)NC(=O)[C@@H](N)[C@@H](C)O)C(C)C)C(N)=O` [XVII, HCl.H-Thr-Gln-Trp-Ala-Val-Gly-phe-Leu-Met-NH₂] (H-TQWAVG[dF]LM-NH2) was tested. Which IC50 did it give?
The IC50 was 32500 nM.

`CSCC[C@H](NC(=O)[C@H](CC(C)C)NC(=O)[C@H](Cc1c[nH]cn1)NC(=O)CNC(=O)[C@@H](NC(=O)[C@H](C)NC(=O)[C@H](Cc1c[nH]c2ccccc12)NC(=O)[C@H](CCC(N)=O)NC(=O)[C@@H](N)CC(N)=O)C(C)C)C(N)=O` [BBS(6-14)nonapeptide, reference compound] was tested. Which IC50 did it give?
Its IC50 is 9.4 ± 3.1 nM.

Which IC50 does the source give for `CCCCCNC(=O)[C@H](CC(C)C)NC(=O)[C@H](Cc1c[nH]cn1)NC(=O)CNC(=O)[C@@H](NC(=O)[C@H](C)NC(=O)[C@H](Cc1c[nH]c2ccccc12)NC(=O)[C@H](CCC(N)=O)NC(=O)[C@@H](N)[C@@H](C)O)C(C)C` [XXVIII, H-Thr-Gln-Trp-Ala-Val-Gly-His-Leu-NH(CH₂)₄CH₃. 2CF₃COOH] (H-TQWAVGHL-NHPentyl) here?
Its IC50 is 76 ± 30 nM.

`CSCC[C@H](NC(=O)[C@H](CC(C)C)NC(=O)[C@@H](C)NC(=O)CNC(=O)[C@@H](NC(=O)[C@H](C)NC(=O)[C@H](Cc1c[nH]c2ccccc12)NC(=O)[C@H](CCC(N)=O)NC(=O)[C@@H](NC(=O)OC(C)(C)C)[C@@H](C)O)C(C)C)C(N)=O` [XXXIV, Boc-Thr-Gln-Trp-Ala-Val-Gly-ala-Leu-Met-NH₂] (Boc-TQWAVG[dA]LM-NH2) was tested. Which IC50 did it give?
Its IC50 is 18200 nM.

How did the IC50 turn out when “TQWAVGSLM-NH2 [XXIV, H-Thr-Gln-Trp-Ala-Val-Gly-Ser-Leu-Met-NH₂.CF₃COOH]” was run?
Its IC50 is 590 ± 130 nM.

With `CSCC[C@H](NC(=O)[C@H](CC(C)C)NC(=O)CNC(=O)[C@@H](NC(=O)[C@H](C)NC(=O)[C@H](Cc1c[nH]c2ccccc12)NC(=O)[C@H](CCC(N)=O)NC(=O)[C@@H](NC(=O)OC(C)(C)C)[C@@H](C)O)C(C)C)C(N)=O` [XVIII, Boc-Thr-Gln-Trp-Ala-Val-Gly-Leu-Met-NH₂] (Boc-TQWAVGLM-NH2) as the compound, how does the IC50 read?
Its IC50 is 1000 nM.

For `CC(C)C[C@H](NC(=O)[C@H](Cc1c[nH]cn1)NC(=O)CNC(=O)[C@@H](NC(=O)[C@H](C)NC(=O)[C@H](Cc1c[nH]c2ccccc12)NC(=O)[C@H](CCC(N)=O)NC(=O)[C@@H](NC(=O)OC(C)(C)C)[C@@H](C)O)C(C)C)C(N)=O` [XXXIII, Boc-Thr-Gln-Trp-Ala-Val-Gly-His-Leu-NH₂] (Boc-TQWAVGHL-NH2), which IC50 is on record?
The IC50 was 556 ± 128 nM.

“KTQWAVGALM-NH2 [XXV, H-Lys-Thr-Gln-Trp-Ala-Val-Gly-Ala-Leu-Met-NH₂ . 2HCl]” was tested. Which IC50 did it give?
The IC50 was 970 ± 4 nM.
